{
  "source": "paper PMC6530537",
  "about": "“Efficient development of stable and highly functionalised peptides targeting the CK2α/CK2β protein–protein interaction” (Chemical Science, 2019)",
  "key": {"CK2α [1]": {"target": "T1, CK2α (Homo sapiens, UniProt P68400, K74A/K75A/K76A/R21S)", "T1 construct": "CK2α_KA (residues 2 -329) contained four; His6 (N, cleaved yes); made in house; host or cells: Escherichia coli BL21(DE3)", "T1 sequence (P68400 2-329 R21S/K74A/K75A/K76A)": "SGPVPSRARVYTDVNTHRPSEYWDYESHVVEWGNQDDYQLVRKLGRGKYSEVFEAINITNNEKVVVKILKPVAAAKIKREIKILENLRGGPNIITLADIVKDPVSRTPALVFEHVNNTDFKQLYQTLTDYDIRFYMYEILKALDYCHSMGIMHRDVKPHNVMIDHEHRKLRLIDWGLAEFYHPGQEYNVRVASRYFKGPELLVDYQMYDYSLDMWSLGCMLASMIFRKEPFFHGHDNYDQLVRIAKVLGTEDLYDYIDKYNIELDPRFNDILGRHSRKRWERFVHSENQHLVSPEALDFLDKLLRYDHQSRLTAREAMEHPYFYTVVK", "test": "Isothermal titration calorimetry, direct binding to CK2α", "conditions": "ITC, 25°C, CK2α_KA, Tris 200 mM, NaCl 300 mM, 10% DMSO, single site binding model", "procedure": "(§1) lysed using a high-pressure homogeniser.\n(§2) The soluble supernatant was applied on a […]\n(§3) mM NaCl, 1mM DTT, 1mM EDTA, pH 8.5). 100µL of the precision protease was loaded onto the […]\nPure protein was concentrated to 15 mg/mL and flash frozen in liquid N2. […]\n(§4) 1.4.3. Isothermal Calorimetry Titration\n(§5) 1.4.3.1. Direct binding assay\n(§6) DMSO) and concentrated to 20-50 μM. Compounds in 100× stock solutions were diluted into the […]\n(§7) Control titrations were performed, and the […]"}, "CK2α/CK2β interaction": {"target": "T2, CK2α/CK2β interaction (Homo sapiens, UniProt P68400)", "T2 construct": "CK2α_WT was used (residues 2-329); His6 (N, cleaved yes); made in house; host or cells: Escherichia coli BL21(DE3)", "T2 sequence (P68400 2-329)": "T1 sequence (P68400 2-329 R21S/K74A/K75A/K76A) with S20R, A73K, A74K, A75K", "test": "ITC competition assay: CK2β binding to CK2α alone and in the presence of peptide", "conditions": "25°C", "procedure": "We then wanted to investigate whether the peptides would be able to inhibit the binding of the β subunit to the α subunit. To this end, the binding affinity of the regulatory β subunit for the catalytic domain was determined via ITC (Kd 9 nM). This was then repeated in the presence of 100 μM P1-C4 and P2-C4 (ESI, Table S4 ^†). […] As one of the key roles of CK2β is to recruit substrates to the kinase, the effect of PPI inhibition on substrate phosphorylation was studied using CK2β dependent and independent substrates. […] It should be noted that the kinase assay was performed using the pre-formed CK2α/β complex as the ability of CK2α to phosphorylate eIF2β requires the presence of the CK2β subunit.\n1.4.3.2. Competition assay […]\nconcentrated to 4-6 μM. CK2β (9.3 mg/mL, 20 mM Tris pH 8.5, 500 mM NaCl) was diluted in Tris buffer (200 mM, NaCl, 300 mM, 10% DMSO) and concentrated to 40 μM. In a typical experiment, […]\nperformed at 150 second intervals. The syringe was loaded with CK2β and rotated at 750 rpm. The same experiment was repeated in the presence of the peptide s: compounds at 1 mM in DMSO were added to the solutions of CK2α and CK2β (prepared as described above) to a final concentration of […]\nbinding model using Origin software. […]\n(CK2β-RAD) 200s, baseline 120s (assay buffer), control loading 200s (RAD), baseline 150s (assay buffer), ligand binding (association) 400s (CK2α K74A and CAM7117) and ligand dissociation 600s (assay buffer), followed by regeneration and next cycles. […]\nGraphPad. The results are the average of 4 repeats and error shown as SEM.\nFigure S10- Sensorgrams of the BLI competition experiments to assess the ability of P2-C4 to […] the CK2α/CK2β-RAD complex. a) Concentration of peptide ranging from 10 to 0.025 μM and 0 μM. b) Concentration of peptide ranging from 10 to 5 nM and 0 nM.\n(1 picture or pasted object on this page, not shown here)"}, "CK2α [2]": {"target": "T3, CK2α (Homo sapiens, UniProt P68400)", "T3 construct": "CK2α_WT was used (residues 2-329); His6 (N, cleaved yes); made in house; host or cells: Escherichia coli BL21(DE3)", "T3 sequence (P68400 2-329)": "T1 sequence (P68400 2-329 R21S/K74A/K75A/K76A) with S20R, A73K, A74K, A75K", "test": "Fluorescence polarisation assay: displacement of fluorescein-labelled CK2β-derived probe from CK2α", "format": "binding", "conditions": "FP, 15 µM test compound, 450 nM CK2α, 7.4 nM CK2β_pep probe, 350 mM NaCl, 20 mM Mes pH 6.5, 30 min incubation, triplicates; approximate; read-out: % inhibition at 15 μM (CK2β-like probe displacement)", "description": "Molecular modelling identified Cys2 and Gly11 of Pc,[34] corresponding to P185 and P194 of CK2β, as suitable residues to staple: they make negligible contributions to the binding and are positioned at a suitable distance from each other to accommodate a 2C-CuAAC staple (ESI, Fig. S1 ^†). To cyclise the peptide, azido amino acids bearing one-carbon-atom side chains (Fmoc-Aza-OH) were used in combination with aliphatic linkers of different lengths as proposed by molecular modelling (Fig. 2 and ESI Table S1 ^†). The ability of the synthesised macrocycles to disrupt the α/β PPI of CK2 was then tested in a preliminary fluorescent polarisation assay (FP) (Fig. 2). […]\nas §1, §2, §3\nPure protein was concentrated to 15 mg/mL and flash frozen in liquid N2.\n1.4.2. Fluorescent Polarisation anisotropy\nApproximate % inhibition of\nThe experiment was performed in triplicates.\nas §4, §5, §6, §7"}, "[3]": {"conditions": "pH 6.5"}, "HCT116 cells": {"tested_on": "HCT116 cells", "test": "cells", "format": "cell-based, human", "conditions": "Homo sapiens, HCT-116, 96 h; HCT116 cells, 4 day incubation, SYTOX green imaging, average of at least four independent repeats; read-out: GI50", "procedure": "(§8) page 47: 1.5. Biological experimental 1.5.1. […] The experiment was performed in duplicates. 1.5.2. […] 1.5.3. […] 46"}, "U2OS cells": {"tested_on": "U2OS cells", "test": "cells", "format": "cell-based, human", "conditions": "Homo sapiens, 96 h; U2OS cells, 4 day incubation, SYTOX green imaging, average of at least four independent repeats; read-out: GI50", "procedure": "as §8"}},
  "note": "Positions count from the first letter of the chain named. Where a SMILES comes first, the peptide text is derived from it. Bridges are numbered along the chain shown (N, C = ends). [ ]: non-standard residue; d: D form. Dap(N3) = [N-]=[N+]=NC[C@H](N)C(=O)O",
  "data": [
    {"compound": "CC[C@H](C)[C@@H]1NC(=O)[C@H](CCCCN)NC(=O)[C@H](Cc2ccccc2)NC(=O)CNC(=O)[C@H](Cc2ccc(O)cc2)NC(=O)[C@H](CC(C)C)NC(=O)[C@H](CCCNC(=N)N)NC(=O)[C@@H](NC(=O)CNC(C)=O)CSSC[C@@H](C(=O)NCC(N)=O)NC(=O)CNC(=O)[C@H](Cc2c[nH]cn2)NC1=O", "note": "[Pc, reference compound] (Ac-GCRLYGFKIHGCG-NH2; disulfide 2-12)", "values": [
      {"measurement": "Kd", "setting": "CK2α [1]", "value": 1, "unit": "µM"}
    ]},
    {"compound": "CK2β: regulatory β subunit of CK2, recombinant construct (1-198)", "values": [
      {"measurement": "Kd", "setting": "CK2α/CK2β interaction; CK2β in the syringe, CK2α in the cell, no peptide, read-out: Kd of the regulatory β subunit for the catalytic domain CK2α", "value": 0.009, "unit": "µM"}
    ]},
    {"compound": "CC[C@H](C)[C@@H]1NC(=O)[C@H](CCCCN)NC(=O)[C@H](Cc2ccccc2)NC(=O)CNC(=O)[C@H](Cc2ccc(O)cc2)NC(=O)[C@H](CC(C)C)NC(=O)[C@H](CCCNC(=N)N)NC(=O)[C@@H](NC(=O)CNC(C)=O)Cn2cc(nn2)-c2cc(C(=O)O)cc(c2)-c2cn(nn2)C[C@@H](C(=O)NCC(=O)NCC(N)=O)NC(=O)[C@H](Cc2c[nH]cn2)NC1=O", "note": "[P1-C4]", "values": [
      {"measurement": "inhibition at 15 µM", "setting": "CK2α [2]", "value": "93 ± 1", "unit": "%"},
      {"measurement": "Binding of CK2β to CK2α in the presence of peptide", "setting": "CK2α/CK2β interaction; 100 μM peptide, preliminary assay", "value": "no binding of CK2β to CK2α was detected"},
      {"measurement": "Kd", "setting": "CK2α [1]", "value": 0.46, "unit": "µM"}
    ]},
    {"compound": "GXC2RLYGFKIHXC2GG (sidechain bridge or staple) [P1-C2]", "values": [
      {"measurement": "Solubility under the assay conditions", "setting": "[3]", "value": "insoluble"}
    ]},
    {"compound": "CC[C@H](C)[C@@H]1NC(=O)[C@H](CCCCN)NC(=O)[C@H](Cc2ccccc2)NC(=O)CNC(=O)[C@H](Cc2ccc(O)cc2)NC(=O)[C@H](CC(C)C)NC(=O)[C@H](CCCNC(=N)N)NC(=O)[C@@H](NC(=O)CNC(C)=O)Cn2cc(nn2)Cc2cn(nn2)C[C@@H](C(=O)NCC(=O)NCC(N)=O)NC(=O)[C@H](Cc2c[nH]cn2)NC1=O", "note": "[P1-C3]", "values": [
      {"measurement": "Solubility under the assay conditions", "setting": "[3]", "value": "insoluble"}
    ]},
    {"compound": "CC[C@H](C)[C@@H]1NC(=O)[C@H](CCCCN)NC(=O)[C@H](Cc2ccccc2)NC(=O)CNC(=O)[C@H](Cc2ccc(O)cc2)NC(=O)[C@H](CC(C)C)NC(=O)[C@H](CCCNC(=N)N)NC(=O)[C@@H](NC(C)=O)Cn2cc(nn2)CCc2cn(nn2)C[C@@H](C(N)=O)NC(=O)[C@H](Cc2c[nH]cn2)NC1=O", "note": "[P0-C1]", "values": [
      {"measurement": "inhibition at 15 µM", "setting": "CK2α [2]", "value": "0.6 ± 0.5", "unit": "%"}
    ]},
    {"compound": "CC(=O)NCC(=O)N[C@@H](CN=[N+]=[N-])C(=O)N[C@@H](CCCNC(=N)N)C(=O)N[C@@H](CC(C)C)C(=O)N[C@@H](Cc1ccc(O)cc1)C(=O)NCC(=O)N[C@@H](Cc1ccccc1)C(=O)N[C@@H](CCCCN)C(=O)N[C@@H](Cc1c[nH]c2ccccc12)C(=O)N[C@@H](Cc1c[nH]cn1)C(=O)N[C@@H](CN=[N+]=[N-])C(=O)NCC(=O)NCC(N)=O", "note": "[P2] (Ac-G[Dap(N3)]RLYGFKWH[Dap(N3)]GG-NH2)", "values": [
      {"measurement": "Kd", "setting": "CK2α [1]", "value": 44, "unit": "µM"}
    ]},
    {"compound": "O=C(O)c1ccc2c(c1)nc(Nc1cccc(Cl)c1)c1ccncc12", "note": "[CX4945, reference compound]", "values": [
      {"measurement": "GI50", "setting": "HCT116 cells", "value": "14 ± 2", "unit": "µM"},
      {"measurement": "GI50", "setting": "U2OS cells", "value": "7 ± 1", "unit": "µM"}
    ]}
  ]
}
